Holding throughout (experiment): NCI tumour cell line growth inhibition, 48 h
In assay [1] the test system is SF-268.
For assay [2], the system named is HCT-15.
The subject of assay [3] is HCC 2998.
In assay [4] the test system is HOP-92.
The subject of assay [5] is LOX IMVI.
The subject of assay [6] is CAKI-1.
For assay [7], the system named is HOP-62.
Assay [8] deals with OVCAR-3.
Assay [9] deals with ACHN.
The test system of assay [10] is SNB-19.
Assay [11] relates to COLO 205.
The test system of assay [12] is EKVX.
The subject of assay [13] is MOLT-4.
Assay [14] has as its system SF-539.
The subject of assay [15] is UACC-257.
Assay [16] deals with SN12C.
In assay [17] the test system is RXF 393.
In assay [18] the test system is T47D.
In assay [19] the test system is SK-OV-3.
The subject of assay [20] is K562.

Molecules are shown by their SMILES.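 Briefly, cells in 96-well plates were exposed to five compound concentrations for 48 h, and endpoints were estimated by linear interpolation. At the GI50, growth is halved.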 Activity calls are given as the source filed them. Rule as the data show it: active = GI50 up to about 1.1 µM and inactive = higher.

The values that follow come from ChEMBL document CHEMBL1201862, “PubChem BioAssay data set” (2004).

Turning to `Cc1ccccc1N1C(N)=C(C#N)C(C#N)(C#N)C1c1ccccc1` (stereo unspecified), the GI50 in assay [1] was 20.9 µM (inactive); in assay [2], 16.6 µM; in assay [3], 16.8 µM (inactive); in assay [4], 13.8 µM (inactive); in assay [5], 17.7 µM (inactive); in assay [6] it was 25.9 µM (inactive). In addition, the GI50 in assay [7] was 19.4 µM (inactive); in [8], 17.2 µM (inactive); in assay [9] it was 16.1 µM (inactive); in assay [10] it was 20 µM (inactive); in assay [11] it was 17.9 µM (inactive); in assay [12] it was 17.9 µM (inactive). Further, the GI50 in [13] was 15.6 µM (inactive); in [14], 21.2 µM (inactive); in assay [15] it was 17 µM (inactive); in [16] it was 23.3 µM (inactive); in assay [17], 15.3 µM (inactive); in [18], 12.5 µM (inactive). In assay [19], the GI50 is 31.3 µM (inactive).
Take `C=C1C2CCC3(CCC4C5(C)CCCC4(C=[N+](CCO)C5)C3C2)C1O` (stereo unspecified): the GI50 is > 100 µM (inactive) in assay [1]; more than 100 µM in [2]; > 100 µM (inactive) in assay [3]; > 100 µM (inactive) in assay [4]; > 100 µM (inactive) in assay [5]; > 100 µM (inactive) in [6]. The GI50 in assay [7] was > 100 µM (inactive); in assay [8], > 100 µM (inactive); in assay [20], > 10 µM (inactive); in assay [9], > 100 µM (inactive); in assay [10] it was > 100 µM (inactive); in assay [11], > 100 µM (inactive). The GI50 in [12], in assay [14], in assay [15], in assay [16], in assay [17] and in [18] was > 100 µM (inactive) each time. Moreover, in assay [19], the GI50 is > 100 µM (inactive).
`O=S1(=O)OCCOS(=O)(=O)C1(F)Cc1ccccc1`: the GI50 in assay [1] was > 100 µM (inactive); in assay [2] it was more than 100 µM; in assay [3] it was > 100 µM (inactive); in assay [4] it was > 100 µM (inactive); in assay [5], > 100 µM (inactive); in assay [6], > 100 µM (inactive). Further, the GI50 in assay [7], in assay [8], in assay [20], in assay [9], in assay [10] and in [11] was > 100 µM (inactive) in each case. Besides, the GI50 in [12], in assay [13], in assay [14], in assay [16], in assay [17] and in [18] was > 100 µM (inactive) throughout. In assay [19], the GI50 was > 100 µM (inactive).
Take `Cc1ccc2c(O)cc(-c3cccc4ccccc34)nc2n1`: the GI50 in assay [1] is 0.762 µM (active); in assay [2], 0.0206 µM; in assay [3], 0.0294 µM (active); in assay [4] it was 0.0127 µM (active); in [5], 0.0229 µM (active); in [6] it was 0.353 µM (active). Moreover, the GI50 in assay [7] was 1.88 µM (inactive); in assay [8] it was < 0.0149 µM (active); in [20], < 0.01 µM (active); in assay [9], 0.102 µM (active); in assay [10], 0.0445 µM (active); in assay [11] it was 0.022 µM (active). Also, the GI50 is 0.0338 µM (active) in assay [12]; 0.0698 µM (active) in assay [13]; 0.0216 µM (active) in assay [14]; 0.181 µM (active) in assay [16]; 0.497 µM (active) in assay [17]; 67.8 µM (inactive) in assay [18]. In [19], the GI50 was 0.021 µM (active).
